Test results reported in PubChem BioAssay (NCI).
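A five-concentration, 48-hour dose response in 96-well plates underlies each endpoint, interpolated linearly between surrounding concentrations. At the GI50, growth is halved. TGI: total growth inhibition.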

Legend:
Experiment in all cases: NCI tumour cell line growth inhibition, 48 h
[1] = test system: SF-295 CNS
[2] = test system: NCI-H226 lung
[3] = test system: TK-10 renal
[4] = test system: UACC-62 melanoma
[5] = test system: BT-549 breast
[6] = test system: K-562 leukemia
[7] = test system: HCT-116 colon
[8] = test system: HOP-62 NSCLC
[9] = test system: DU-145 prostate
[10] = test system: IGROV1 ovarian
[11] = test system: SF-268 CNS
[12] = test system: HS 578T breast
[13] = test system: SN12C renal
[14] = test system: SW-620 colon
[15] = test system: HCC-2998 colon
[16] = test system: HOP-92 NSCLC
[17] = test system: A498 renal
[18] = test system: UACC-257 melanoma
[19] = test system: SNB-19 CNS
[20] = test system: SR leukemia
[21] = test system: OVCAR-4 ovarian
[22] = test system: COLO 205 colon
[23] = test system: HL-60(TB) leukemia
[24] = test system: NCI-H460 lung
[25] = test system: NCI/ADR-RES ovarian
[26] = test system: OVCAR-5 ovarian
[27] = test system: RPMI-8226 leukemia
[28] = test system: NCI-H23 lung
[29] = test system: MOLT-4 leukemia
[30] = test system: LOX IMVI melanoma
[31] = test system: CAKI-1 renal
[32] = test system: SK-MEL-2 melanoma
[33] = test system: MCF7 breast
[34] = test system: T-47D breast
[35] = test system: UO-31 renal
[36] = test system: OVCAR-8 ovarian
[37] = test system: RXF 393 renal
[38] = test system: SF-539 CNS
[39] = test system: SK-MEL-28 melanoma
[40] = test system: HT29 colon
[41] = test system: PC-3 prostate
[42] = test system: MDA-MB-435
[43] = test system: SK-MEL-5 melanoma
[44] = test system: KM12 colon
[45] = test system: MALME-3M melanoma
[46] = test system: M14 melanoma
[47] = test system: 786-0 renal
[48] = test system: U251 CNS
[49] = test system: HCT-15 colon
[50] = test system: ACHN renal
[51] = test system: CCRF-CEM leukemia
[52] = test system: NCI-H522 lung
[53] = test system: MDA-MB-231 breast
[54] = test system: A549 NSCLC
[55] = test system: OVCAR-3 ovarian
[56] = test system: SNB-75 CNS
[57] = test system: SK-OV-3 ovarian

## COC(=O)Nc1nc2c(OC)c(OC)c(OC)cc2[nH]1
[1]
  GI50: 27.9 µM
  TGI: > 100 µM
[2]
  GI50: 61.4 µM
  TGI: > 100 µM
[3]
  GI50: 66.6 µM
  TGI: > 100 µM
[4]
  GI50: 13.3 µM
  TGI: > 100 µM
[5]
  GI50: 50.4 µM
  TGI: > 100 µM
[6]
  GI50: 5.43 µM
  TGI: > 100 µM
[7]
  GI50: 10.1 µM
  TGI: > 100 µM
[8]
  GI50: 33.5 µM
  TGI: > 100 µM
[9]
  GI50: 32 µM
  TGI: > 100 µM
[10]
  GI50: 22.1 µM
  TGI: > 100 µM
[11]
  GI50: 59.2 µM
  TGI: > 100 µM
[12]
  GI50: 30 µM
  TGI: > 92.3 µM
[13]
  GI50: 74 µM
  TGI: > 100 µM
[14]
  GI50: 5.8 µM
  TGI: > 100 µM
[15]
  GI50: 55.6 µM
  TGI: > 100 µM
[16]
  GI50: 20.9 µM
  TGI: > 91.4 µM
[17]
  GI50: 25.5 µM
  TGI: > 100 µM
[18]
  GI50: > 100 µM
  TGI: > 100 µM
[19]
  GI50: 45.7 µM
  TGI: > 100 µM
[20]
  GI50: 3.39 µM
  TGI: > 75.7 µM
[21]
  GI50: 64.2 µM
  TGI: > 100 µM
[22]
  GI50: 7.33 µM
  TGI: 64.7 µM
[23]
  GI50: 6.33 µM
  TGI: > 89.5 µM
[24]
  GI50: 14.6 µM
  TGI: > 100 µM
[25]
  GI50: 8.91 µM
  TGI: 97.6 µM
[26]
  GI50: 49.6 µM
  TGI: > 100 µM
[27]
  GI50: 35.6 µM
  TGI: > 100 µM
[28]
  GI50: 39.1 µM
  TGI: > 100 µM
[29]
  GI50: 67.2 µM
  TGI: > 100 µM
[30]
  GI50: 49 µM
  TGI: > 100 µM
[31]
  GI50: 15.7 µM
  TGI: > 100 µM
[32]
  GI50: 15.1 µM
  TGI: > 91.6 µM
[33]
  GI50: 9.38 µM
  TGI: > 100 µM
[34]
  GI50: 33.2 µM
  TGI: > 100 µM
[35]
  GI50: 36.4 µM
  TGI: > 100 µM
[36]
  GI50: 38.7 µM
  TGI: > 100 µM
[37]
  GI50: 18.4 µM
  TGI: 66 µM
[38]
  GI50: 18.6 µM
  TGI: 73.3 µM
[39]
  GI50: 52.4 µM
  TGI: > 100 µM
[40]
  GI50: 4.63 µM
  TGI: > 97.1 µM
[41]
  GI50: 24.2 µM
  TGI: > 100 µM
[42]
  GI50: 2.09 µM
  TGI: 5.71 µM
[43]
  GI50: 9.34 µM
  TGI: > 100 µM
[44]
  GI50: 5.48 µM
  TGI: > 100 µM
[45]
  GI50: 16.4 µM
  TGI: > 100 µM
[46]
  GI50: 8.9 µM
  TGI: > 100 µM
[47]
  GI50: 66.4 µM
  TGI: > 100 µM
[48]
  GI50: 21.1 µM
  TGI: > 100 µM
[49]
  GI50: 5.71 µM
  TGI: > 100 µM
[50]
  GI50: 81.9 µM
  TGI: > 100 µM
[51]
  GI50: 25.4 µM
  TGI: > 100 µM
[52]
  GI50: 13.3 µM
  TGI: 58.1 µM
[53]
  GI50: 18.7 µM
  TGI: > 100 µM
[54]
  GI50: 14.8 µM
  TGI: > 100 µM
[55]
  GI50: 15.6 µM
  TGI: 49.1 µM
[56]
  GI50: 15.4 µM
  TGI: > 92.6 µM
[57]
  GI50: 30.8 µM
  TGI: > 100 µM
